Assay results published in US20230096663A1, “FARNESOID X RECEPTOR MODULATING COMPOUNDS AND METHODS OF USING THE SAME” (Inorbit Therapeutics AB, priority 2020, published 2023).
Like-named read-outs stand apart in the source and are kept apart here.

What was measured:
[1] = test system: FXR related genes (BSEP, SHP) in primary human hepatocytes; experiment: Gene expression in human primary hepatocytes (BSEP, SHP); type: cell-based; details: 24 hours incubation
Experimental: The test compound was dissolved in buffer to give a 10 mM stock solution. The compound was serially diluted to the desired concentrations and then incubated with human primary hepatocytes for 24 hours at 37° C. in a CO2 incubator. After incubation, the media was removed and the RNA harvested using the Trizol-CHCl3 method and quantified using Nano drop. The RNA was then Reverse Transcribed to cDNA using a superscript vilo cDNA synthesis kit. The cDNA with respective Taqman primers, master mix are then amplified using quantitative RT-PCR system. […] The compounds of examples 2 and 3 upregulate FXR related and disease relevant genes on incubation with primary human hepatocytes. […] It is a uni-directional, ATP-dependent efflux transporter that plays an important role in the elimination of bile salts from the hepatocyte into the bile canaliculi for export into the gastrointestinal tract. FXR also induces the expression of small heterodimer partner (SHP) which controls a complex set of genes in multiple metabolic pathways. It reduces the expression of CYP7A1, a liver-specific enzyme that catalyzes the first and rate-limiting step in one of the two pathways for bile acid biosynthesis.

[2] = Compound exposure in plasma and liver of HFHC fed male mice; type: in vivo; details: C57BL/6J, mouse, oral; for Kp at 4 h: liver/plasma, 4 hours after last dose on day 28, read-out: Ratio (liver to plasma exposure)
[3] = target: T1, Human FXR receptor (NR1H4) (Homo sapiens, UniProt Q96RI1); experiment: Human Farnesoid X Receptor (NR1H4, FXR) reporter assay; type: cell-based
T1 sequence (Q96RI1 1-486): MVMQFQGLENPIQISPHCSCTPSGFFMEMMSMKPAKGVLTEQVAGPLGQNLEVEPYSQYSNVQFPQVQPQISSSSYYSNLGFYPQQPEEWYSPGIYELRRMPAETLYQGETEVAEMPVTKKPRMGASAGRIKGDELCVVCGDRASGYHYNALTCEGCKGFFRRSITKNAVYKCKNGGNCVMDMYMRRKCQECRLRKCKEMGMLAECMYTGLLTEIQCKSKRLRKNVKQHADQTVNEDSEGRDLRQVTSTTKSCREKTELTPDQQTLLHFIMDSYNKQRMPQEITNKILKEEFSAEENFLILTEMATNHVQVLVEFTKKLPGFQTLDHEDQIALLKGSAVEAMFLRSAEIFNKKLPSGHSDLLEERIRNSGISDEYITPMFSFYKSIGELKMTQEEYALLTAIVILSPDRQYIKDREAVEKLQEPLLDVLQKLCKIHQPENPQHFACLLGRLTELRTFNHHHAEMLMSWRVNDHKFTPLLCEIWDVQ
From the text: Determination of a ligand mediated Gal4 promoter driven transactivation to quantify ligand binding mediated activation of FXR. A FXR Reporter Assay kit was purchased from Indigo Bioscience (#IB00601-32) to determine the potency and efficacy of compounds that can induce FXR activation. The nuclear receptor assay system utilizes non-human mammalian cells engineered to provide constitutive high level expression of Human FXR receptor (NR1H4), a ligand-dependent transcription factor. The reporter cells include luciferase reporter gene functionality linked to an FXR-response promoter. Quantifying changes in luciferase expression in the treated reporter cells provides a sensitive surrogate measure of the changes in FXR activity. […] Luminescence intensity of the reaction is quantified using a luminometer, and is reported in terms of Relative Light Units (RLU's). […] After incubation, the media was carefully removed, Luciferase detection solution was added and the plate read in a Luminometer. The data was calculated as per kit instructions, with increases in luminescence being directly proportional to increases in compound agonist activity.

O=S([O-])c1cc(F)c2nc(N3[C@@H]4CC[C@H]3C[C@@H](OCc3c(-c5ccccc5OC(F)(F)F)noc3C3CC3)C4)sc2c1.[Na+] [Example 2, Sodium 2-(3-((5-cyclopropyl-3-(2-(trifluoromethoxy)phenyl)isoxazol-4-yl)methoxy)-8-azabicyclo[3.2.1]octan-8-yl)-4-fluorobenzo[d]thiazole-6-sulfinate]
Expression of FXR related and disease relevant genes (BSEP, SHP) [1]: upregulate | concentration at 4 h ([2]; liver, 3 mg/kg, 3 mg/kg BID oral, 4 hours after last dose on day 28, read-out: Mean compound exposure, Liver): 54.8 ng/g | concentration at 4 h ([2]; liver, 10 mg/kg, 10 mg/kg BID oral, 4 hours after last dose on day 28, read-out: Mean compound exposure, Liver): 138 ng/g | concentration at 4 h ([2]; liver, 10 mg/kg, 10 mg/kg QD oral, 4 hours after last dose on day 28, read-out: Mean compound exposure, Liver): 80.1 ng/g | Kp at 4 h ([2]; 3 mg/kg, 3 mg/kg BID oral): 54.8 | Kp at 4 h ([2]; 10 mg/kg, 10 mg/kg BID oral): 65.9 | Kp at 4 h ([2]; 10 mg/kg, 10 mg/kg QD oral): 66.8 | concentration at 4 h ([2]; plasma, 3 mg/kg, 3 mg/kg BID oral, 4 hours after last dose on day 28, read-out: Mean compound exposure, Plasma): 1 ng/mL | concentration at 4 h ([2]; plasma, 10 mg/kg, 10 mg/kg BID oral, 4 hours after last dose on day 28, read-out: Mean compound exposure, Plasma): 2.1 ng/mL | concentration at 4 h ([2]; plasma, 10 mg/kg, 10 mg/kg QD oral, 4 hours after last dose on day 28, read-out: Mean compound exposure, Plasma): 1.2 ng/mL | EC50 ([3]; Human FXR (NR1H4) luciferase reporter assay, 22-24 h): 460 nM | Efficacy ([3]; normalized to GW4064 set as 100%): 119%
